# Assay results taken from patent publication US20150168420A1, “BIOORTHOGONAL CHEMICAL INDUCERS OF REVERSIBLE DIMERIZATION FOR CONTROL OF PROTEIN FUNCTION IN CELLS” (MAX-PLANCK-GESELLSCHAFT ZUR FÖRDERUNG DER WISSENSCHAFTEN …, priority 2012, published 2015).
# How the values were obtained:
# [1] = target: ECFP-eDHFR and YFP-FKBP(F36V) (UniProt P0ABQ4+P62942, F37V); experiment: FRET titration of ligand-induced heterodimerization of recombinant fusion proteins; format: binding; settings: 400 nM ECFP-eDHFR and 400 nM YFP-FKBP(F36V)
# eDHFR and FKBP(F36V) = eDHFR and FKBP(F36V) (UniProt P0ABQ4+P62942, F37V); experiment: Size exclusion chromatography and SDS-PAGE of eDHFR / FKBP(F36V) mixture with ligand; format: binding
# Method: FIG. 1: Efficiency and specificity of SLF′-TMP (compound 13) binding (comp. example 2). • In the absence of SLF′-TMP (solid line) or in the presence of 100 μM SLF′-TMP (compound 13, dashed line). • a) size exclusion chromatography profile • b) SDS-PAGE analysis
# A size exclusion chromatography profile of a mixture of 100 μM eDHFR and FKBP(F36V) was performed in the absence or the presence of 100 μM SLF′-TMP (compound 13) (see FIG. 1a).
# A SDS-PAGE analysis of fractions from the gel filtration was carried out in the absence and the presence of the ligand SLF′-TMP (compound 13), respectively (see FIG. 1b).
compound,measurement,setting,value
CCC(C(=O)N1CCCCC1C(=O)O[C@H](CCc1ccc(OC)c(OC)c1)c1cccc(OCC(=O)NCCCOCCOCCOCCCNC(=O)COc2c(OC)cc(Cc3cnc(N)nc3N)cc2OC)c1)c1cc(OC)c(OC)c(OC)c1 (stereo partly shown) [SLF′-TMP],FRET signal (ratio of fluorescence 523 nm / 475 nm) upon titration,[1],dose-dependent increase
same,Kd,"[1]; quadratic fit, read-out: dissociation constant Kd from FRET titration",120 ± 40 nM
same,binding to FKBP(F36V) and eDHFR by size exclusion chromatography,"eDHFR and FKBP(F36V); 100 μM eDHFR and FKBP(F36V), 100 μM ligand",binds effectively
same,binding to FKBP(F36V) and eDHFR by SDS-PAGE of gel filtration fractions,eDHFR and FKBP(F36V); presence versus absence of ligand,binds to FKBP(F36V) and eDHFR
